Measured values reported in PubChem BioAssay AID248 (DTP/NCI, 2004).
Inconclusive results and toxic doses are left out. No stated cut-off is given here; in the data, active means T/C of 150% or more; inactive means T/C below 125%.

Tested on: L1210 leukemia ip in BDF1 mice, survival T/C
Assay: NCI In Vivo Anticancer Drug Screen. Data for tumor model L1210 Leukemia (intraperitoneal) in B6D2F1 (BDF1) mice
Details: endpoint: mean survival time, higher = longer survival
How it was run: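 Transplantable tumor model; survival measured in treated vs vehicle control mice. Value = treated/control.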

[1] = dose: 100.0 mg/kg/injection, schedule: Q01DX009 (ip), vehicle: Klucel (hydroxypropylcellulose) (HPC)
[2] = dose: 200.0 mg/kg/injection, schedule: Q01DX009 (ip), vehicle: Klucel (hydroxypropylcellulose) (HPC)
[3] = dose: 400.0 mg/kg/injection, schedule: Q01DX009 (ip), vehicle: Klucel (hydroxypropylcellulose) (HPC)
[4] = dose: 100.0 mg/kg/injection, schedule: Q04DX003 (ip), vehicle: saline with Tween-80
[5] = dose: 200.0 mg/kg/injection, schedule: Q04DX003 (ip), vehicle: saline with Tween-80
[6] = dose: 400.0 mg/kg/injection, schedule: Q04DX003 (ip), vehicle: saline with Tween-80

Measured: T/C

Cc1cccc(C)c1N1C(=O)CC(Sc2ccccc2N)C1=O (stereo not given)
inactive: [1] 92 % of control | dose: 100.0 mg/kg/injection, schedule: Q04DX003 (ip), vehicle: Klucel (hydroxypropylcellulose) (HPC) 98 % of control | [2] 88 % of control | dose: 200.0 mg/kg/injection, schedule: Q04DX003 (ip), vehicle: Klucel (hydroxypropylcellulose) (HPC) 95 % of control | [3] 88 % of control | dose: 400.0 mg/kg/injection, schedule: Q04DX003 (ip), vehicle: Klucel (hydroxypropylcellulose) (HPC) 93 % of control

Cc1cnc(C(=O)O)c(N)n1
inactive: dose: 75.0 mg/kg/injection, schedule: Q01DX001 (ip), vehicle: saline 105 % of control | dose: 150.0 mg/kg/injection, schedule: Q01DX001 (ip), vehicle: saline 93 % of control

O=c1cc[nH]c2c(Cl)cccc12
inactive: dose: 50.0 mg/kg/injection, schedule: Q01DX001 (ip), vehicle: carboxymethylcellulose (CMC) 109 % of control | dose: 100.0 mg/kg/injection, schedule: Q01DX001 (ip), vehicle: carboxymethylcellulose (CMC) 109 % of control | dose: 200.0 mg/kg/injection, schedule: Q01DX001 (ip), vehicle: carboxymethylcellulose (CMC) 114 % of control | dose: 400.0 mg/kg/injection, schedule: Q01DX001 (ip), vehicle: carboxymethylcellulose (CMC) 110 % of control

O=[N+]([O-])c1cc2c(nc3ccccn32)c2ccccc12
inactive: dose: 50.0 mg/kg/injection, schedule: Q01DX001 (ip), vehicle: saline 97 % of control | dose: 100.0 mg/kg/injection, schedule: Q01DX001 (ip), vehicle: saline 96 % of control | dose: 200.0 mg/kg/injection, schedule: Q01DX001 (ip), vehicle: saline 97 % of control

C/C=C/C(C1=C(O)c2ccccc2C(=O)C1=O)C1=C(O)c2ccccc2C(=O)C1=O
inactive: dose: 75.0 mg/kg/injection, schedule: Q01DX001 (ip), vehicle: carboxymethylcellulose (CMC) 100 % of control | dose: 150.0 mg/kg/injection, schedule: Q01DX001 (ip), vehicle: carboxymethylcellulose (CMC) 118 % of control | dose: 300.0 mg/kg/injection, schedule: Q01DX001 (ip), vehicle: carboxymethylcellulose (CMC) 108 % of control

CCCCC/C(C=O)=C\c1ccccc1
inactive: dose: 100.0 mg/kg/injection, schedule: Q01DX009 (ip), vehicle: saline with Tween-80 104 % of control | [4] 94 % of control | dose: 200.0 mg/kg/injection, schedule: Q01DX009 (ip), vehicle: saline with Tween-80 91 % of control | [5] 96 % of control | dose: 400.0 mg/kg/injection, schedule: Q01DX009 (ip), vehicle: saline with Tween-80 93 % of control | [6] 105 % of control

COc1cc(C(Br)C(Br)C(=O)c2ccccc2[N+](=O)[O-])cc(OC)c1OC (stereo not given)
inactive: [1] 95 % of control | [2] 95 % of control | [3] 94 % of control

O=C(O)/C(=C\c1ccccc1)c1ccccc1
inactive: [4] 100 % of control | [5] 94 % of control | [6] 100 % of control
